Experimental data taken from US20220017541A1, “INHIBITORS OF ARGINASE” (Black Belt Tx Ltd, priority 2018, published 2022).
pIC50: −log10 of the molar value.

Columns and labels:
recombinant human ARG1 = molecular target: T1, recombinant human ARG1 (Homo sapiens, UniProt P05089); experiment: Arginase enzymatic assay in vitro, recombinant human ARG1 (colorimetric urea detection); assay type: biochemical; settings: recombinant human arginase 1; read-out: IC50 Inh rhARG1
T1 construct: purchased R&D System 5868-AR-010
T1 sequence (P05089 1-322): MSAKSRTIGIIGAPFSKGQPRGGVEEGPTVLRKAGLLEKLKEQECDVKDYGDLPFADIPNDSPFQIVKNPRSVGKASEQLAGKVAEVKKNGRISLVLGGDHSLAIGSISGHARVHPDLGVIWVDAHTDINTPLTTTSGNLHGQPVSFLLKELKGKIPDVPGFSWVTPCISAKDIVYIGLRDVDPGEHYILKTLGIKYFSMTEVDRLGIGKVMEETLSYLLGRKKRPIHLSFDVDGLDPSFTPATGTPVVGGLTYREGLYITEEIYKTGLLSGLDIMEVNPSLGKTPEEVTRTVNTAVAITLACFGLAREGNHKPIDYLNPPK
Source text: Arginase catalyzes the hydrolysis of L-arginine into L-ornithine and urea. Urea amount produced by this reaction can be detected using a colorimetric assay and used as an indirect measurement of arginase activity. An adapted protocol from (Baggio, R., et al., J Pharmacol Exp Ther, 1999. 290(3): p. 1409-16) was used for the testing the ability of exemplary compounds of the invention to inhibit arginase enzymes from a variety of sources including recombinant human ARG1 and 2, lysates of human red blood cells (RBC) and intact murine macrophages, as described below.
Compounds of the invention were prepared from powder as 10 mM stock solutions in DMSO and stored in presence of N2 neutral atmosphere at −80° C. For IC50 determination and just before the assay, exemplary compounds were successively diluted to get the following concentrations: 210, 70, 21, 7, 2.1, 0.7, 0.21, 0.07, 0.021, 0.007, 0.0021 and 0.0007 μM (i.e., final concentrations in the wells of 30, 10, 3, 1, 0.3, 0.1, 0.03, 0.01, 0.003, 0.001, 0.0003, 0.0001 μM).
Assays were run in clear flat bottom 96-well plates (Nunclon, Cat. No. #167008) adding in each well the following solutions in this order: (1) 10 μl of Tris-HCl solution supplemented with 0.1% bovine serum albumin (BSA) containing 1.563 μg/ml recombinant human ARG1 (R&D System, Cat. No. #5868-AR-010), (2) 30 μl of Tris-HCl buffer containing 10 mM MnCl2 and (3) 10 μL of a pre-dilution of each test article or DMSO (vehicle). Compounds were allowed to interact with the enzyme-cofactor complex pre-incubating the plate at 37° C. for 30 min. To start the reaction, 20 μl of 50 mM L-arginine (Sigma Aldrich Cat. #A5006-100G) were added to each well in exception of the blank reaction (see below). All reactions were allowed to happen for 1 h at 37° C. To detect the urea production, reactions were stopped by adding 200 μl of a mixture of reagent A (4 mM o-phthalaldehyde in 50 mM Boric Acid, 1 M Sulfuric Acid, 0.03% Brij-35 (w/v)) and reagent B (4 mM N-(1-naphthyl)ethylenediamine in 50 mM Boric Acid, 1 M Sulfuric Acid, 0.03% Brij-35 (w/v)) in equal proportion. Color product was developed for 1 h at room temperature (RT) protected from light and then absorbance at 520 nm was measured using a Multifunction Microplate Reader (Synergy 4, Bioteck). Blank reactions were carried out by adding the L-arginine substrate only after the addition of mixture A-B. All reactions were carried out in duplicates.
The inhibition of urea production was calculated subtracting the absorbance from the blank reaction (zero enzymatic urea production) to the absorbance from all reactions and it was expressed as the percentage of the absorbance from the reaction containing the test article with respect to the absorbance from vehicle reaction (maximum of urea production).

[1] = Plasma concentration after single IV or PO dose in mice (LC/MS/MS); assay type: in vivo; parameters: Plasma concentration PO @ t = 30 min: dose or concentration left out as unconfirmed; settings: 30 min after dosing
Method: Compounds were formulated at 0.4 and 1 mg/ml in a vehicle containing Poly-Ethylene Glycol 400 (PEG400; Cat. No. #91893, Sigma Aldrich) as dosing solutions for intravenous and oral administration, respectively. Male C57BL6 mice, approximately 8-10 weeks old (22-25 grams), were obtained from the vivarium Fundación Ciencia & Vida Chile (Santiago, Chile) and maintained in a temperature-controlled room with 12/12 hr light/dark schedule with food and water ad libitum. Animals were acclimated for a minimum period of 4 days upon arrival at the testing facility.
At the day of study, mice were weighed, identified by marking the tail with numbers using a non-toxic permanent marker and designated into the experimental groups (n=3 per group). Each mouse of IV dosing groups received the systemic administration of 2 mg/kg dosing solution via caudal vein. […] No.: FTP-2038; Instech Salomon Inc.).
Blood samples were harvested by terminal cardiac puncture at 30 min after dosing. Non-dosed mice were used to collect samples of zero time points. Whole blood was collected into microtainer tubes with (K2) EDTA (Cat. No.: 365974, Becton Dickinson & Co.). Blood samples were centrifuged immediately at 9,000 g at 4° C. for 5 min and then plasmas were separated. Plasma samples were placed into individually labeled cryovials and stored in a −80° C. freezer until LC/MS/MS bioanalysis.
The bioanalysis of plasma samples to determine concentrations of exemplary compounds of the invention was conducted with a QTRAP 4500 triple quadrupole mass spectrometer (Applied Biosystems SCIEX) in the positive ion mode and interfaced with an ekspert ultraLC 100-XL UPLC System (eksigent). Calibration standards (0.01 to 100 μM) and QCs (0.2, 2.0 and 20 μM) were prepared from naïve mouse plasma in parallel with mouse plasma study samples (60 μl) by precipitation with three volumes of ice cold internal standard solution (acetonitrile containing 20 μM of theophylline). The precipitated samples were centrifuged at 6,100 g for 30 min at 4° C. Following centrifugation, an aliquot of each supernatant was transferred into a clean sample vial and diluted with two volumes of aqueous mobile phase (0.2% formic acid in water). Samples were injected onto a reverse phase analytical column (YMC Triart C18; 2.0×50 mm; 1.9 μm; YMC CO) and eluted with a gradient of 0.1 or 0.2% formic acid in Acetonitrile. Test compound and internal standard were monitored by a multiple reaction monitoring (MRM) experiment using an Analyst software (v 1.6.2, Applied Biosystems SCIEX). Quantitation was conducted using a MultiQuant software (v 2.1, Applied Biosystems SCIEX) and the resulting calibration curve was fitted with a linear or quadratic regression and 1/× weighting. The lower limit of quantitation were between 0.01-0.03 μM.
IV and PO PK parameters were calculated from the concentration-time data using Phoenix WinNonlin software (v 6.4, Certara, Princeton, N.J.) by noncompartmental analysis in the sparse sampling mode.

| Compound | pIC50 (recombinant human ARG1) | Plasma concentration PO @ t = 30 min [1] | Plasma concentration 2 mg/Kg IV @ t = 30 min [1] |
| --- | --- | --- | --- |
| NC(CCCCB(O)O)(C(=O)O)C1CCN(C2CCc3cc(C(F)(F)F)ccc32)CC1 (single isomer, unassigned) [Compound 85, 2-amino-6-borono-2-[1-[5-(trifluoromethyl)indan-1-yl]-4-piperidyl]hexanoic acid] | > 6.30 |  |  |
| CNC(CCCCB(O)O)(C(=O)O)C1CCN(C2CCCc3ccccc32)CC1 (single isomer, unassigned) [Compound 79, 6-borono-2-(methylamino)-2-(1-(1,2,3,4-tetrahydronaphthalen-1-yl)piperidin-4-yl)hexanoic acid] | > 6.30 |  |  |
| NC(CCCCB(O)O)(C(=O)O)C1CCN(C2CCc3ccccc32)CC1 (single isomer, unassigned) [Compound 2, 2-amino-6-borono-2-(1-(2,3-dihydro-1H-inden-1-yl)piperidin-4-yl)hexanoic acid] | > 6.30 | + (plasma concentration < 500 nM) |  |
| NC(CCCCB(O)O)(C(=O)O)C1CCN(C2CCCc3ccccc32)CC1 (single isomer, unassigned) [Compound 5, 2-amino-6-borono-2-(1-(1,2,3,4-tetrahydronaphthalen-1-yl)piperidin-4-yl)hexanoic acid] | > 6.30 | + (plasma concentration < 500 nM) | ++ (plasma concentration > 1000 nM for test compound) |
| NC(CCCCB(O)O)(C(=O)O)C1CCN(C2CCCc3cc(Cl)ccc32)CC1 (single isomer, unassigned) [Compound 17, 2-amino-6-borono-2-(1-(6-chloro-1,2,3,4-tetrahydronaphthalen-1-yl)piperidin-4-yl)hexanoic acid] | > 6.30 |  |  |
| NC(CCCCB(O)O)(C(=O)O)C1CCN(C2CCCc3ccc(F)cc32)CC1 (single isomer, unassigned) [Compound 83, 2-amino-6-borono-2-(1-(7-fluoro-1,2,3,4-tetrahydronaphthalen-1-yl)piperidin-4-yl)hexanoic acid] | > 6.30 | + (plasma concentration < 500 nM) |  |
| NC(CCCCB(O)O)(C(=O)O)C1CCN(C2CCc3ccccc32)CC1 (single isomer, unassigned) [Compound 3, 2-amino-6-borono-2-(1-(2,3-dihydro-1H-inden-1-yl)piperidin-4-yl)hexanoic acid] | < 5.30 |  |  |
| NC(CCCCB(O)O)(C(=O)O)C1CCN(C2CCCCc3ccccc32)CC1 (single isomer, unassigned) [Compound 84, 2-amino-6-borono-2-(1-(6,7,8,9-tetrahydro-5H-benzo[7]annulen-5-yl)piperidin-4-yl)hexanoic acid] | > 6.30 |  |  |
| NC(CCCCB(O)O)(C(=O)O)C1CCN(C2CCc3ccccc32)CC1 (stereo not shown) [Compound 1, 2-amino-6-borono-2-(1-(2,3-dihydro-1H-inden-1-yl)piperidin-4-yl)hexanoic acid] | > 6.30 |  |  |
| CC(c1ccccc1)N1CCC(C(N)(CCCCB(O)O)C(=O)O)CC1 (single isomer, unassigned) [Compound 11, 2-amino-6-borono-2-(1-(1-phenylethyl)piperidin-4-yl)hexanoic acid] | < 5.30 |  |  |
| NC(CCCCB(O)O)(C(=O)O)C1CCN(C2CCCc3ccccc32)CC1 (single isomer, unassigned) [Compound 6, 2-amino-6-borono-2-(1-(1,2,3,4-tetrahydronaphthalen-1-yl)piperidin-4-yl)hexanoic acid] | < 5.30 |  |  |
| CC1(C)OB(CCCCC(N)(C(=O)O)C2CCN(C3CCCc4ccccc43)CC2)OC1(C)C (stereo not shown) [Compound 77, 2-amino-2-(1-(1,2,3,4-tetrahydronaphthalen-1-yl)piperidin-4-yl)-6-(4,4,5,5-tetramethyl-1,3,2-dioxaborolan-2-yl)hexanoic acid] | > 6.30 |  |  |
| NC(CCCCB(O)O)(C(=O)O)C1CCN(C2CCc3cc(Cl)ccc32)CC1 (single isomer, unassigned) [Compound 14, 2-amino-6-borono-2-[1-(5-chloroindan-1-yl)-4-piperidyl]hexanoic acid] | > 6.30 |  |  |
| NC(CCCCB(O)O)(C(=O)O)C1CCN(C2CCCc3ccccc32)CC1 (single isomer, unassigned) [Compound 4, 2-amino-6-borono-2-(1-(1,2,3,4-tetrahydronaphthalen-1-yl)piperidin-4-yl)hexanoic acid] | > 6.30 |  |  |
| CC(c1ccccc1)N1CCC(C(N)(CCCCB(O)O)C(=O)O)CC1 (stereo not shown) [Compound 9, 2-amino-6-borono-2-(1-(1-phenylethyl)piperidin-4-yl)hexanoic acid] | > 6.30 |  |  |
| CC(c1ccccc1)N1CCC(C(N)(CCCCB(O)O)C(=O)O)CC1 (single isomer, unassigned) [Compound 10, 2-amino-6-borono-2-(1-(1-phenylethyl)piperidin-4-yl)hexanoic acid] | > 6.30 | + (plasma concentration < 500 nM) | + (plasma concentration < 500 nM) |
